Reference: PubChem BioAssay (NCI)
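Five concentrations, 48 hours, 96-well plates. Abbreviation: GI50, concentration required for 50% inhibition of growth. TGI is the concentration that stops growth completely.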

Tests used:
Assay in all cases: growth of human tumour cells (NCI), 48 h
A498 renal = system: A498 renal
SF-268 CNS = system: SF-268 CNS
SK-MEL-28 melanoma = system: SK-MEL-28 melanoma
ACHN renal = system: ACHN renal
MCF7 breast = system: MCF7 breast
RXF 393 renal = system: RXF 393 renal
MALME-3M melanoma = system: MALME-3M melanoma
SNB-19 CNS = system: SNB-19 CNS
KM12 colon = system: KM12 colon
UACC-257 melanoma = system: UACC-257 melanoma
HT29 colon = system: HT29 colon
SK-MEL-2 melanoma = system: SK-MEL-2 melanoma
HL-60(TB) leukemia = system: HL-60(TB) leukemia
CCRF-CEM leukemia = system: CCRF-CEM leukemia
HOP-92 NSCLC = system: HOP-92 NSCLC
HCT-116 colon = system: HCT-116 colon
MDA-MB-435 = system: MDA-MB-435
OVCAR-4 ovarian = system: OVCAR-4 ovarian
K-562 leukemia = system: K-562 leukemia
UO-31 renal = system: UO-31 renal
BT-549 breast = system: BT-549 breast
HCT-15 colon = system: HCT-15 colon
OVCAR-3 ovarian = system: OVCAR-3 ovarian
SF-295 CNS = system: SF-295 CNS
SN12C renal = system: SN12C renal
MOLT-4 leukemia = system: MOLT-4 leukemia
EKVX NSCLC = system: EKVX NSCLC
SW-620 colon = system: SW-620 colon
HOP-62 NSCLC = system: HOP-62 NSCLC
U251 CNS = system: U251 CNS
T-47D breast = system: T-47D breast
OVCAR-8 ovarian = system: OVCAR-8 ovarian
SK-OV-3 ovarian = system: SK-OV-3 ovarian
COLO 205 colon = system: COLO 205 colon
MDA-MB-231 breast = system: MDA-MB-231 breast
HS 578T breast = system: HS 578T breast
RPMI-8226 leukemia = system: RPMI-8226 leukemia
DU-145 prostate = system: DU-145 prostate
IGROV1 ovarian = system: IGROV1 ovarian
NCI-H23 lung = system: NCI-H23 lung
NCI-H226 lung = system: NCI-H226 lung
NCI/ADR-RES ovarian = system: NCI/ADR-RES ovarian
SR leukemia = system: SR leukemia
NCI-H460 lung = system: NCI-H460 lung
CAKI-1 renal = system: CAKI-1 renal
SF-539 CNS = system: SF-539 CNS
UACC-62 melanoma = system: UACC-62 melanoma
SNB-75 CNS = system: SNB-75 CNS
786-0 renal = system: 786-0 renal
A549 NSCLC = system: A549 NSCLC
LOX IMVI melanoma = system: LOX IMVI melanoma
PC-3 prostate = system: PC-3 prostate
SK-MEL-5 melanoma = system: SK-MEL-5 melanoma
TK-10 renal = system: TK-10 renal
NCI-H522 lung = system: NCI-H522 lung
M14 melanoma = system: M14 melanoma
HCC-2998 colon = system: HCC-2998 colon
OVCAR-5 ovarian = system: OVCAR-5 ovarian

COc1ccc(/C=N/C2=C(C#N)C(c3ccccc3)c3c(ccc4ccccc34)O2)cc1 (stereo unspecified)
GI50 (A498 renal): 0.594 µM
TGI (A498 renal): 6.18 µM
GI50 (SF-268 CNS): 2.85 µM
TGI (SF-268 CNS): 65.3 µM
GI50 (SK-MEL-28 melanoma): 7.14 µM
TGI (SK-MEL-28 melanoma): 59.8 µM
GI50 (ACHN renal): 4.09 µM
TGI (ACHN renal): 54.4 µM
GI50 (MCF7 breast): 0.586 µM
TGI (MCF7 breast): 24.5 µM
GI50 (RXF 393 renal): 1.49 µM
TGI (RXF 393 renal): 7.19 µM
GI50 (MALME-3M melanoma): 0.649 µM
TGI (MALME-3M melanoma): 40.4 µM
GI50 (SNB-19 CNS): 2.06 µM
TGI (SNB-19 CNS): 56.2 µM
GI50 (KM12 colon): 1.16 µM
TGI (KM12 colon): 35.4 µM
GI50 (UACC-257 melanoma): 23.4 µM
TGI (UACC-257 melanoma): > 100 µM
GI50 (HT29 colon): 0.702 µM
TGI (HT29 colon): 15.3 µM
GI50 (SK-MEL-2 melanoma): 3.97 µM
TGI (SK-MEL-2 melanoma): > 100 µM
GI50 (HL-60(TB) leukemia): 0.649 µM
TGI (HL-60(TB) leukemia): 6 µM
GI50 (CCRF-CEM leukemia): 0.751 µM
TGI (CCRF-CEM leukemia): > 100 µM
GI50 (HOP-92 NSCLC): 1.16 µM
TGI (HOP-92 NSCLC): 18.2 µM
GI50 (HCT-116 colon): 0.516 µM
TGI (HCT-116 colon): 19.2 µM
GI50 (MDA-MB-435): 0.273 µM
TGI (MDA-MB-435): 0.834 µM
GI50 (OVCAR-4 ovarian): 8.75 µM
TGI (OVCAR-4 ovarian): > 100 µM
GI50 (K-562 leukemia): 0.37 µM
TGI (K-562 leukemia): > 100 µM
GI50 (UO-31 renal): 1.09 µM
TGI (UO-31 renal): 37.7 µM
GI50 (BT-549 breast): 1.17 µM
TGI (BT-549 breast): 20.9 µM
GI50 (HCT-15 colon): 0.564 µM
TGI (HCT-15 colon): 29 µM
GI50 (OVCAR-3 ovarian): 0.464 µM
TGI (OVCAR-3 ovarian): 10.2 µM
GI50 (SF-295 CNS): 0.482 µM
TGI (SF-295 CNS): 11.8 µM
GI50 (SN12C renal): 4.23 µM
TGI (SN12C renal): 26.2 µM
GI50 (MOLT-4 leukemia): 1.75 µM
TGI (MOLT-4 leukemia): > 100 µM
GI50 (EKVX NSCLC): 5.02 µM
TGI (EKVX NSCLC): > 100 µM
GI50 (SW-620 colon): 0.732 µM
TGI (SW-620 colon): > 100 µM
GI50 (HOP-62 NSCLC): 1.77 µM
TGI (HOP-62 NSCLC): 60.1 µM
GI50 (U251 CNS): 1.87 µM
TGI (U251 CNS): 21.1 µM
GI50 (T-47D breast): 2.41 µM
TGI (T-47D breast): > 100 µM
GI50 (OVCAR-8 ovarian): 4.07 µM
TGI (OVCAR-8 ovarian): > 100 µM
GI50 (SK-OV-3 ovarian): 4.95 µM
TGI (SK-OV-3 ovarian): > 100 µM
GI50 (COLO 205 colon): 2.36 µM
TGI (COLO 205 colon): 21.2 µM
GI50 (MDA-MB-231 breast): 2.5 µM
TGI (MDA-MB-231 breast): 22.8 µM
GI50 (HS 578T breast): 2.15 µM
TGI (HS 578T breast): 23.8 µM
GI50 (RPMI-8226 leukemia): 2.66 µM
TGI (RPMI-8226 leukemia): 35.3 µM
GI50 (DU-145 prostate): 3.26 µM
TGI (DU-145 prostate): 18.6 µM
GI50 (IGROV1 ovarian): 0.57 µM
TGI (IGROV1 ovarian): 39.3 µM
GI50 (NCI-H23 lung): 3.41 µM
TGI (NCI-H23 lung): > 100 µM
GI50 (NCI-H226 lung): 2.17 µM
TGI (NCI-H226 lung): 54.8 µM
GI50 (NCI/ADR-RES ovarian): 0.916 µM
TGI (NCI/ADR-RES ovarian): > 100 µM
GI50 (SR leukemia): 0.713 µM
TGI (SR leukemia): > 100 µM
GI50 (NCI-H460 lung): 1.37 µM
TGI (NCI-H460 lung): 47.1 µM
GI50 (CAKI-1 renal): 0.457 µM
TGI (CAKI-1 renal): 20.4 µM
GI50 (SF-539 CNS): 1.65 µM
TGI (SF-539 CNS): 10.4 µM
GI50 (UACC-62 melanoma): 0.711 µM
TGI (UACC-62 melanoma): > 100 µM
GI50 (SNB-75 CNS): 0.466 µM
TGI (SNB-75 CNS): 4.01 µM
GI50 (786-0 renal): 4.48 µM
TGI (786-0 renal): 38.7 µM
GI50 (A549 NSCLC): 1.99 µM
TGI (A549 NSCLC): > 100 µM
GI50 (LOX IMVI melanoma): 2.01 µM
TGI (LOX IMVI melanoma): 22.8 µM
GI50 (PC-3 prostate): 1.22 µM
TGI (PC-3 prostate): 18.8 µM
GI50 (SK-MEL-5 melanoma): 1.74 µM
TGI (SK-MEL-5 melanoma): 18.2 µM
GI50 (TK-10 renal): 19.1 µM
TGI (TK-10 renal): > 100 µM
GI50 (NCI-H522 lung): 0.388 µM
TGI (NCI-H522 lung): 37.6 µM
GI50 (M14 melanoma): 0.459 µM
TGI (M14 melanoma): 9.66 µM
GI50 (HCC-2998 colon): 3.81 µM
TGI (HCC-2998 colon): 31.5 µM
GI50 (OVCAR-5 ovarian): 4.53 µM
TGI (OVCAR-5 ovarian): 37.7 µM
